From ChEMBL document CHEMBL3856242, “Bioactive diterpenoids from Trigonostemon chinensis: Structures, NO inhibitory activities, and interactions with iNOS” (Bioorg Med Chem Lett, 2016)

Tests used:
[1] = molecular target: T1, Nitric oxide synthase, inducible (Mus musculus, UniProt P29477); test: Inhibition of iNOS in mouse BV2 cells assessed as inhibition of LPS-induced NO production after 20 hrs by Griess reaction; format: cell-based, BV-2
T1 sequence (P29477 whole entry): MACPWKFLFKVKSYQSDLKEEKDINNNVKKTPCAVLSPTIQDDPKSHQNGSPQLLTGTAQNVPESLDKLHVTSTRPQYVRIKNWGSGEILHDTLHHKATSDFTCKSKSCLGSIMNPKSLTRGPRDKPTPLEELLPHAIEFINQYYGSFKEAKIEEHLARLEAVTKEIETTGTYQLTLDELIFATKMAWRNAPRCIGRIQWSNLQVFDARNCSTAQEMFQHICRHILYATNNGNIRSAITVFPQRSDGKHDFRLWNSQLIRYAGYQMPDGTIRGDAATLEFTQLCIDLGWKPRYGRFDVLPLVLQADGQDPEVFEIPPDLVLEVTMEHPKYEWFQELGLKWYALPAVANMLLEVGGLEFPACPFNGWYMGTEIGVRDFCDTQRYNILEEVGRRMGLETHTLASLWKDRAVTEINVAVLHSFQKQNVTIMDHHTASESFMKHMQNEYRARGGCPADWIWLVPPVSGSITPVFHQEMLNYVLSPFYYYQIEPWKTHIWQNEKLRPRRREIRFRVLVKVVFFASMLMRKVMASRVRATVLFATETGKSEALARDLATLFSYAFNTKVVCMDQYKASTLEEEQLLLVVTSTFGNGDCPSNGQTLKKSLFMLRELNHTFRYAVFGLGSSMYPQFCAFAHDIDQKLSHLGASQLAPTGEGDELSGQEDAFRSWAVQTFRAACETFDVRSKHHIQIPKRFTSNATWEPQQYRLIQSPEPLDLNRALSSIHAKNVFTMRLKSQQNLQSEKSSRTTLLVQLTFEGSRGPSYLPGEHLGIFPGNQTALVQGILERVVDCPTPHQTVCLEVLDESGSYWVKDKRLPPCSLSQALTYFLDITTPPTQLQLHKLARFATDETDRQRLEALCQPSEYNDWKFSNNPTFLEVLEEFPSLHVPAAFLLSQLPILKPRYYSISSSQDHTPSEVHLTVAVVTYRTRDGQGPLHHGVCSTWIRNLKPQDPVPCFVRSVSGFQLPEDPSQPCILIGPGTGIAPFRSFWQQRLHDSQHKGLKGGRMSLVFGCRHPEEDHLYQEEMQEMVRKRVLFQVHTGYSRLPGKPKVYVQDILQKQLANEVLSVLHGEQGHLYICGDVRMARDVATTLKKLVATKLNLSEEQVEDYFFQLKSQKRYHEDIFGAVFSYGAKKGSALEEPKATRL

Mus musculus = species on record: Mus musculus; test: Cytotoxicity against mouse BV2 cells at IC50 by MTT assay; format: toxicity, cell-based; conditions: bv-2

SMILES | IC50 [1] [µM] | Activity (Mus musculus)
CSC(=N)N.O=S(=O)(O)O | 1.8 | Non-Toxic
C=C(C)[C@@]1(OC(C)=O)[C@H](OC(C)=O)[C@@H]2[C@H](OC(C)=O)[C@@]3(C)O[C@@]4([C@@H]3OC(=O)c3ccccc3)[C@@H](OC(C)=O)[C@@H](C)C[C@H]4[C@@]2(O)[C@H](C)[C@@H]1OC(=O)c1ccccc1 | 7.5 | Non-Toxic
Cc1cc2c(cc1O)[C@@]1(C)CC[C@H](O)C(C)(C)[C@@H]1CC2 | 5.9 | Non-Toxic
C=C(C)[C@@]1(O)[C@@H]2OC3(c4ccccc4)O[C@H]1[C@@H](C)[C@@]1(O3)[C@H]2[C@H](O)[C@@](C)(OC(=O)c2ccccc2)[C@@H](OC(C)=O)[C@@]2(O)[C@H]1C[C@H](C)[C@@H]2O | > 30 | Non-Toxic
C=C(C)[C@@]1(OC(=O)c2ccccc2)[C@H](OC(C)=O)[C@@H]2[C@H](OC(C)=O)[C@@]3(C)O[C@@]4([C@@H]3OC(=O)c3ccccc3)[C@@H](OC(C)=O)[C@@H](C)C[C@H]4[C@@]2(O)[C@H](C)[C@@H]1OC(C)=O | 13.4 | Non-Toxic
Cc1cc2c(cc1O)C=C1CC[C@H](O)C(C)(C)[C@@H]1CC2 | 3.8 | Non-Toxic
C=C(C)[C@@]1(O)[C@@H]2OC3(c4ccccc4)O[C@H]1[C@@H](C)[C@@]1(O3)[C@H]2[C@H](OC(C)=O)[C@@](C)(OC(=O)c2ccccc2)[C@@H](OC(C)=O)[C@@]2(O)[C@H]1C[C@H](C)[C@@H]2O | 10.2 | Non-Toxic
